# Where two headings read alike, the source gives them in different places.
# Assays:
# Type in all cases: cell-based, mouse
# [1] = test system: β-galactosidase in CMV-LacZ C2C12 myotubes; test: CMV-LacZ secondary screen in C2C12 myotubes (β-Gal stabilizing assay); settings: for fold induction at 5 µM / fold induction at 10 µM / fold induction at 20 µM / fold induction at 40 µM: Mus musculus, C2C12 CMV-LacZ myotubes, fold relative to DMSO; for fold induction at 5 µM: C2C12, read-out: CMV-LACZ in Myotubes, signal relative to DMSO, 5 uM; for fold induction at 10 µM: C2C12, read-out: CMV-LACZ in Myotubes, signal relative to DMSO, 10 uM; for fold induction at 20 µM: C2C12, read-out: CMV-LACZ in Myotubes, signal relative to DMSO, 20 uM; for fold induction at 40 µM: C2C12, read-out: CMV-LACZ in Myotubes, signal relative to DMSO, 40 uM; for CMV-LACZ in Myotubes (β-galactosidase activity relative to DMSO): CMV-LacZ C2C12 myotubes, 96-well format
# Source text: In order to determine compounds that acted to stabilize β-gal in myogenic cells, a CMV-LacZ C2C12 cell line was used in a secondary screen. The EGFP gene from the pEGFP (Clontech) vector was replaced by LACZ PCR product with digests of the vector/PCR product performed using EcoRI (NEB) and NotI (NEB) and ligated using T4 DNA Ligase (NEB) following standard procedures to produce the CMV-LACZ vector. The LACZ gene was generated by PCR from the pBK-RSV (Stratagene) vector using primers LACZ EcoRI F- and LACZ NotI R-. The CMV-LACZ vector was then digested with AfIII (NEB) to linearize the construct, which was then transfected in C2C12 myoblasts using Lipofectamine 2000 (Invitrogen) following the manufacturer's instructions. […] Clonal lines were selected and screened for βgal levels using the myoblast FDG assay.
# The assays were used the original 96-well format and new dose-response curves for myoblasts (N=3-6 replicates for each data point), myotubes (N=3-6 replicates for data point), and CMV-LacZ secondary assay (N=2 replicates for each data point) using concentrations of 0.5 μM, 1 μM, 5 μM, 10 μM, 20 μM, and 40 μM (Tables 9-16).
# [2] = test system: α7 integrin (LacZ reporter in α7βgal+/− myoblasts); test: Myoblast α7+/LacZ integrin FDG assay (Burkin assay in myoblasts, 96-well); settings: α7+/LacZ myoblasts, 96-well; for fold induction at 0.5 µM / fold induction at 1 µM / fold induction at 5 µM / fold induction at 10 µM / fold induction at 20 µM / fold induction at 40 µM: Mus musculus, Myoblast, 48 h
# [3] = test system: α7 integrin (LacZ reporter in α7+/LacZ myotubes); test: Myotube α7 integrin FDG assay (Burkin assay in myotubes, 96-well); settings: myotubes; for fold induction at 0.5 µM / fold induction at 1 µM / fold induction at 5 µM / fold induction at 10 µM / fold induction at 20 µM / fold induction at 40 µM: Mus musculus, Myotube
smiles,measurement,setting,value
COc1ccccc1C(=O)Nc1nc2cc3c(cc2s1)OCO3 [MLS000419555-01],fold induction at 5 µM,[1],1.22
same,fold induction at 10 µM,[1],1.21
same,fold induction at 20 µM,[1],1.22
same,fold induction at 40 µM,[1],1.22
same,fold induction at 0.5 µM,"[2]; 0.5 uM, read-out: Burkin Assay in Myoblasts, signal relative to DMSO",1.19
same,fold induction at 1 µM,"[2]; 1 uM, read-out: Burkin Assay in Myoblasts, signal relative to DMSO",1.2
same,fold induction at 5 µM,"[2]; 5 uM, read-out: Burkin Assay in Myoblasts, signal relative to DMSO",1.07
same,fold induction at 10 µM,"[2]; 10 uM, read-out: Burkin Assay in Myoblasts, signal relative to DMSO",1.03
same,fold induction at 20 µM,"[2]; 20 uM, read-out: Burkin Assay in Myoblasts, signal relative to DMSO",0.948
same,fold induction at 40 µM,"[2]; 40 uM, read-out: Burkin Assay in Myoblasts, signal relative to DMSO",0.797
same,fold induction at 0.5 µM,"[3]; 0.5 uM, read-out: Burkin Assay in Myotubes, α7 integrin LacZ reporter signal relative to DMSO",1.05
same,fold induction at 1 µM,"[3]; 1 uM, read-out: Burkin Assay in Myotubes, α7 integrin LacZ reporter signal relative to DMSO",1.02
same,fold induction at 5 µM,"[3]; 5 uM, read-out: Burkin Assay in Myotubes, α7 integrin LacZ reporter signal relative to DMSO",1.15
same,fold induction at 10 µM,"[3]; 10 uM, read-out: Burkin Assay in Myotubes, α7 integrin LacZ reporter signal relative to DMSO",1.09
same,fold induction at 20 µM,"[3]; 20 uM, read-out: Burkin Assay in Myotubes, α7 integrin LacZ reporter signal relative to DMSO",1.01
same,fold induction at 40 µM,"[3]; 40 uM, read-out: Burkin Assay in Myotubes, α7 integrin LacZ reporter signal relative to DMSO",1.02
O=C(COC(=O)c1cc2ccccc2oc1=O)Nc1ccc(F)cc1F [MLS000516719-01],CMV-LACZ in Myotubes (β-galactosidase activity relative to DMSO),[1]; 5 uM,0.8894
same,CMV-LACZ in Myotubes (β-galactosidase activity relative to DMSO),[1]; 10 uM,1.114
same,CMV-LACZ in Myotubes (β-galactosidase activity relative to DMSO),[1]; 20 uM,1.103
same,CMV-LACZ in Myotubes (β-galactosidase activity relative to DMSO),[1]; 40 uM,1.072
same,"Burkin Assay in Myoblasts, value relative to DMSO",[2]; 0.5 uM,1.006
same,"Burkin Assay in Myoblasts, value relative to DMSO",[2]; 1 uM,1.048
same,"Burkin Assay in Myoblasts, value relative to DMSO",[2]; 5 uM,1.0321
same,"Burkin Assay in Myoblasts, value relative to DMSO",[2]; 10 uM,1.068
same,"Burkin Assay in Myoblasts, value relative to DMSO",[2]; 20 uM,0.9197
same,"Burkin Assay in Myoblasts, value relative to DMSO",[2]; 40 uM,0.9651
same,Burkin Assay in Myotubes (signal relative to DMSO),[3]; 0.5 uM,0.8618
same,Burkin Assay in Myotubes (signal relative to DMSO),[3]; 1 uM,1.0239
same,Burkin Assay in Myotubes (signal relative to DMSO),[3]; 5 uM,1.203
same,Burkin Assay in Myotubes (signal relative to DMSO),[3]; 10 uM,1.184
same,Burkin Assay in Myotubes (signal relative to DMSO),[3]; 20 uM,1.107
same,Burkin Assay in Myotubes (signal relative to DMSO),[3]; 40 uM,1.175
CC1(C)Cc2c(ccc3ccccc23)C(=O)N1 [MLS000525404-01],fold induction at 5 µM,[1],0.76
same,fold induction at 10 µM,[1],0.873
same,fold induction at 20 µM,[1],0.841
same,fold induction at 40 µM,[1],0.75
same,fold induction at 0.5 µM,"[2]; 0.5 uM, read-out: Burkin Assay in Myoblasts, value relative to DMSO",1
same,fold induction at 1 µM,"[2]; 1 uM, read-out: Burkin Assay in Myoblasts, value relative to DMSO",1.08
same,fold induction at 5 µM,"[2]; 5 uM, read-out: Burkin Assay in Myoblasts, value relative to DMSO",1.12
same,fold induction at 10 µM,"[2]; 10 uM, read-out: Burkin Assay in Myoblasts, value relative to DMSO",1.28
same,fold induction at 20 µM,"[2]; 20 uM, read-out: Burkin Assay in Myoblasts, value relative to DMSO",1.46
same,fold induction at 40 µM,"[2]; 40 uM, read-out: Burkin Assay in Myoblasts, value relative to DMSO",1.79
same,fold induction at 0.5 µM,"[3]; 0.5 uM, read-out: Burkin Assay in Myotubes (signal relative to DMSO)",1.04
same,fold induction at 1 µM,"[3]; 1 uM, read-out: Burkin Assay in Myotubes (signal relative to DMSO)",1.04
same,fold induction at 5 µM,"[3]; 5 uM, read-out: Burkin Assay in Myotubes (signal relative to DMSO)",1.12
same,fold induction at 10 µM,"[3]; 10 uM, read-out: Burkin Assay in Myotubes (signal relative to DMSO)",1.09
same,fold induction at 20 µM,"[3]; 20 uM, read-out: Burkin Assay in Myotubes (signal relative to DMSO)",1.19
same,fold induction at 40 µM,"[3]; 40 uM, read-out: Burkin Assay in Myotubes (signal relative to DMSO)",1.35

# — patent US9980943B2, “Methods of treating muscular dystrophy” (BOARD OF REGENTS OF THE NEVADA SYSTEM OF HIGHER EDUCATION, …, priority 2013, dated 2018)
